For experiment [1], the system named is Wild type MpGDH. The experiment can be described thus: Maltose/glucose response current ratio, IPPD/MpGDH-immobilized screen-printed electrode (chronoamperometry). The conditions noted are these: for Relative value (%) of Maltose/Glucose / Maltose/Glucose (%): 5 mM additive, immobilized wild type MpGDH; for Relative value (%) of Maltose/Glucose: no modifier = 100%; for Maltose/Glucose (%): 1 mM maltose, 1 mM glucose, +250 mV; for Modification of substrate specificity: immobilized MpGDH. The class given is biochemical, Mucor prainii. The text has this:
(§1) The ratio (Mal/Glu) of the reactivity of the glucose dehydrogenase to maltose (Mal) relative to the reactivity thereof to glucose (Glu) can be determined by the following procedures. Onto a printed carbon electrode, N-isopropyl-N′-phenyl-p-phenylenediamine (IPPD) is immobilized by adsorption and a glucose dehydrogenase is immobilized by cross-linking using glutaraldehyde, wherein the glucose dehydrogenase is, for example, a glucose dehydrogenase from a microorganism of the genus Mucor or a glucose dehydrogenase from a microorganism of the genus Aspergillus. Chronoamperometry is performed by using a three-electrode system composed of a working electrode, a counter electrode, and a reference electrode and applying a potential of +250 mV (Ag/AgCl). Once the current value has become sufficiently constant, maltose is added to a final concentration of 1 mM in phosphate-buffered saline (PBS) (for example, maltose is added 100 seconds after the start of measurement). Next, once the current value has become sufficiently constant again after the addition of maltose, glucose is added to a final concentration of 1 mM in phosphate-buffered saline (PBS) (for example, glucose is added 100 seconds after the addition of maltose). The substrate specificity of glucose dehydrogenase can be evaluated by measuring the reactivity thereof to maltose when the reactivity thereof to glucose is considered as 100%. In the present specification, the ratio of the reactivity to maltose (Mal) relative to the reactivity to glucose (Glu) may be denoted as Mal/Glu. When the reactivity is evaluated based on the response current(s), the ratio of the reactivity may be expressed as the ratio of the response current(s).
(§2) 10 μL of 12 mg/ml MpGDH purified preparation, 10 μL of 15 mM each glucose analog, and 10 μL of 20 mM potassium phosphate buffer were mixed and allowed to stand for 2 hours or longer. N-isopropyl-N′-phenyl-p-phenylenediamine (IPPD) was immobilized by adsorption onto screen-printed electrodes (manufactured by DropSens, Product number: DRP-C110) and 12 μg of each MpGDH was applied to the electrodes and allowed to dry at room temperature. Lastly, the electrodes were placed in 25% glutaraldehyde vapor and the resulting electrodes were washed with pure water to obtain IPPD.MpGDH-immobilized electrodes. Next, the electrode was connected to an ALS electrochemical analyzer 814D via a dedicated connector (DRP-CAC). Then, the IPPD.GDH-immobilized electrode, an Ag/AgCl reference electrode, and a platinum counter electrode were immersed in PBS and chronoamperometric measurement was carried out. The applied voltage was set to +250 mV (Ag/AgCl). Once the current value had become sufficiently constant (about 100 seconds after the start of measurement), maltose was added to a final concentration of 1 mM in PBS. Next, subsequently to the addition of the maltose solution, once the current value had become sufficiently constant again (about 100 seconds after the addition of maltose), a glucose solution was added to a final concentration of 1 mM. The difference in the response current before and after the addition of maltose was recorded as the response current value of maltose, and the difference in the response current before and after the addition of glucose was recorded as the response current value of glucose. The value calculated by dividing the response current value of maltose by the response current value of glucose was expressed as maltose/glucose (%). […] Furthermore, when the maltose/glucose of MpGDH in the absence of a substrate specificity modifier is considered as 100%, the value in the presence of D-glucal became 69%, and the substrate specificity was modified.

For experiment [2], the system named is GLD1 (glucose dehydrogenase (FAD-dependent), BBI Solutions). The experiment can be described thus: Maltose/glucose response current ratio, IPPD/GLD1-immobilized screen-printed electrode (chronoamperometry). It counts as biochemical, Aspergillus. The conditions noted are these: for Maltose/Glucose (%) / Relative value (%) of Maltose/Glucose: 5 mM additive; for Maltose/Glucose (%): 1 mM maltose, 1 mM glucose; for Relative value (%) of Maltose/Glucose: no modifier = 100%.
Text: as §1, §2
In the same manner, glucose dehydrogenase (FAD-dependent) (from BBI Solutions, Product Code: GLD1, hereinafter denoted as GLD1) was used to examine the effect of the substrate specificity modifier.

Experiment [3] deals with MrdGDH. Kind of experiment: Maltose/glucose response current ratio, IPPD/MrdGDH-immobilized screen-printed electrode (chronoamperometry). It counts as biochemical, Mucor RD056860. The conditions noted are these: for Maltose/Glucose (%) / Relative value (%) of Maltose/Glucose: 5 mM additive; for Maltose/Glucose (%): 1 mM maltose, 1 mM glucose; for Relative value (%) of Maltose/Glucose: no modifier = 100%.
Text: as §1, §2
(§3) In the same manner, MrdGDH was used to examine the effect of the substrate specificity modifier.

Experiment [4] has as its system GLD1 (glucose dehydrogenase (FAD-dependent), BBI Solutions). Kind of experiment: Maltose/glucose response current ratio, unimmobilized GLD1 with mPMS (chronoamperometry). The class given is biochemical, Aspergillus. The note with it: for Maltose/Glucose (%) / Relative value (%) of Maltose/Glucose: 5 mM additive; for Maltose/Glucose (%): mPMS; for Relative value (%) of Maltose/Glucose: no modifier = 100%. Here is the method: (§4) 10 μL of 12 mg/ml MpGDH purified preparation, 10 μL of 15 mM each glucose analog, and 10 μL of 20 mM potassium phosphate buffer were mixed and allowed to stand for 2 hours or longer. Onto screen-printed electrodes (manufactured by DropSens, Product number: DRP-C110), 80 μL of PBS, 5 μL of each MpGDH solution, and 10 μL of 2 mg/ml mPMS solution were applied and mixed. Chronoamperometric measurement was carried out at an applied voltage of +100 mV (Ag/Ag+). Once the current value had become sufficiently constant (about 100 seconds after the start of measurement), a maltose solution was added to a final concentration of 5 mM and mixed by pipetting up and down. Measurement was stopped once the current value had become sufficiently constant. The difference in the response current before and after the addition of maltose was regarded as the response current value of maltose. In contrast, when an equivalent amount of pure water was added instead of the maltose solution, increase in the response current was not observed. The used printed electrode was thoroughly washed with ultrapure water and dried, and then chronoamperometric measurement was carried out in the same manner as above. A glucose solution was added instead of the maltose solution and the response current value of glucose was measured. The value calculated by dividing the response current value of maltose by the response current value of glucose was expressed as maltose/glucose (%).
In the same manner, GLD1 was used to examine the effect of the substrate specificity modifier.

A further experiment concerns MpGDH. The experiment can be described thus: Maltose/glucose response current ratio, unimmobilized MpGDH with mPMS (chronoamperometry). It counts as biochemical, Mucor prainii. The conditions noted are these: unimmobilized MpGDH; mPMS; 5 mM maltose; +100 mV. On the procedure: as §4
In experiment [5] the test system is MrdGDH. Kind of experiment: Maltose/glucose response current ratio, unimmobilized MrdGDH with mPMS (chronoamperometry). The class given is biochemical, Mucor RD056860. The note with it: for Maltose/Glucose (%) / Relative value (%) of Maltose/Glucose: 5 mM additive; for Maltose/Glucose (%): mPMS; for Relative value (%) of Maltose/Glucose: no modifier = 100%. Here is the method: as §4, §3

Experiment [6] has as its system Wild type MpGDH. Kind of experiment: Maltose/glucose response current ratio, MWCNT/DPPD/MpGDH-immobilized carbon cloth electrode (chronoamperometry). The class given is biochemical, Mucor prainii. The note with it: for Maltose/Glucose Relative value (%): 50 mM additive, wild type MpGDH on carbon cloth electrode, no modifier = 100%; for Modification of substrate specificity of GDH: carbon cloth electrode, MpGDH. On the procedure:
The cloth was thoroughly dried and then washed with ultrapure water. Subsequently, 40 mg/ml wild type MpGDH and 20 μl of 100 mM various glucose analogs dissolved in ultrapure water were mixed in equal proportions, and 20 μl of the resulting solution was applied to the […] immobilized electrode. After being allowed to dry at room temperature, the electrode was placed in 25% glutaraldehyde vapor for 20 minutes to immobilize MpGDH by cross-linking. Then, the electrode was subjected to washing with ultrapure water in the same manner as above to obtain an […]-immobilized electrode. Next, this electrode was connected to an ALS electrochemical analyzer […]. Then, the […]-immobilized electrode, an Ag/AgCl reference electrode, and a platinum counter electrode were immersed in PBS, and chronoamperometric measurement was carried out. The applied voltage was set to +250 mV (Ag/AgCl). […] The difference in the response current before and after the addition of maltose was recorded as the response current value of maltose, and the difference in the response current before and after the addition of glucose was recorded as the response current value of glucose. The value calculated by dividing the response current value of maltose by the response current value of glucose was expressed as maltose/glucose (%). […] An […]-immobilized electrode was made in the same manner as Example 4 except that the application step was altered. That is, 20 μl of 40 mg/ml wild type MpGDH was mixed with 10 μl each of 100 mM glycerol and 100 mM L-iditol dissolved in ultrapure water, and 20 μl of the resulting solution was applied to the […] immobilized electrode for the application step. Then, chronoamperometric measurement was carried out according to the method described in Example 4, and the maltose/glucose (%) was calculated.

Regarding `OC[C@H]1OC=C[C@@H](O)[C@@H]1O` [D-glucal], the “Relative value (%) of Maltose/Glucose” value in the experiment on Wild type MpGDH [1] was 69%; in experiment [2], 30%; in the experiment with MrdGDH [3] it was 78%; in experiment [4], 76%. For the same compound, the “Modification of substrate specificity” value (in experiment [2]; in the experiment with MrdGDH [3]; in experiment [4]) was “modified the substrate specificity” in each case. Also, the “Maltose/Glucose (%)” value in experiment [2] came to 0.09%; in the experiment on MrdGDH [3], 18.1%; in experiment [4], 0.25%.
On to `OC[C@@H](O)[C@H](O)[C@@H](O)[C@H](O)CO` [D-iditol], for which the “Maltose/Glucose (%)” value was 0.1% with Wild type MpGDH [1], 0.01% in experiment [2], 19.3% in the experiment with MrdGDH [3] and 21.6% in the experiment with MrdGDH [5]. Besides, the “Relative value (%) of Maltose/Glucose” value amounted to 22% in the experiment with Wild type MpGDH [1], 4% in experiment [2], 83% in the experiment on MrdGDH [3] and 70% in the experiment with MrdGDH [5]. In addition, the “Modification of substrate specificity” value (in the experiment on Wild type MpGDH [1]; in experiment [2]; in the experiment on MrdGDH [3]; in the experiment with MrdGDH [5]) was “modified the substrate specificity” each time. Also, the “maltose/glucose relative to MpGDH considered as 100%” value in the experiment with MpGDH worked out at 84%.
Take `OC[C@@H](O)[C@@H](O)[C@H](O)[C@H](O)CO` [D-mannitol]: in the experiment with Wild type MpGDH [6], the “Maltose/Glucose Relative value (%)” value is given as 3% and the “Modification of substrate specificity of GDH” value was “modified the substrate specificity”.
The matching figures for `OCC(O)CO` [Glycerol, glycerol]: 29% and “modified the substrate specificity”.
As for `OC[C@@H](O)[C@@H](O)[C@@H](O)CO` [Ribitol, ribitol], in the experiment on Wild type MpGDH [1], the “Maltose/Glucose (%)” value was determined as 0.08%, the “Relative value (%) of Maltose/Glucose” value is 17% and the “Modification of substrate specificity” value is listed as “modified the substrate specificity”. Further, the “maltose/glucose relative to MpGDH considered as 100%” value in the experiment with MpGDH was found to be 58%. In experiment [4], the “Modification of substrate specificity” value is “modified the substrate specificity”, the “Maltose/Glucose (%)” value came to 0.29% and the “Relative value (%) of Maltose/Glucose” value is recorded as 88%. In the experiment with MrdGDH [5], the “Modification of substrate specificity” value was “modified the substrate specificity”, the “Maltose/Glucose (%)” value worked out at 22% and the “Relative value (%) of Maltose/Glucose” value is 71%.
Turning to `OC[C@@H](O)[C@@H](O)[C@H](O)[C@@H](O)CO` [Sorbitol, sorbitol], in the experiment with Wild type MpGDH [1], the “Maltose/Glucose (%)” value is 0.2%, the “Relative value (%) of Maltose/Glucose” value is 43% and the “Modification of substrate specificity” value is given as “modified the substrate specificity”. In the experiment with MrdGDH [3], the “Modification of substrate specificity” value is “modified the substrate specificity”, the “Maltose/Glucose (%)” value is listed as 17% and the “Relative value (%) of Maltose/Glucose” value amounted to 73%. The “maltose/glucose relative to MpGDH considered as 100%” value with MpGDH is recorded as 67%. Further, in the experiment on MrdGDH [5], the “Modification of substrate specificity” value is recorded as “modified the substrate specificity”, the “Maltose/Glucose (%)” value was 23% and the “Relative value (%) of Maltose/Glucose” value amounted to 74%.
As to `OC[C@H]1O[C@H](O[C@H]2O[C@H](CO)[C@@H](O)[C@H](O)[C@H]2O)[C@H](O)[C@@H](O)[C@@H]1O` [Trehalose, trehalose], the “Modification of substrate specificity” value (in experiment [2]; with MrdGDH [3]; in experiment [4]; in the experiment on MrdGDH [5]) was “modified the substrate specificity” each time. Also, the “Maltose/Glucose (%)” value came to 0.08% in experiment [2], 14.4% in the experiment on MrdGDH [3], 0.28% in experiment [4] and 22% with MrdGDH [5]. Further, the “Relative value (%) of Maltose/Glucose” value in experiment [2] is reported as 35%; with MrdGDH [3] it was 62%; in experiment [4], 85%; in the experiment on MrdGDH [5], 71%. In addition, in the experiment with MpGDH, the “maltose/glucose relative to MpGDH considered as 100%” value was determined as 72%.
As for `OC[C@@H](O)[C@H](O)[C@@H](O)CO` [Xylitol, xylitol], in the experiment on Wild type MpGDH [6], the “Maltose/Glucose Relative value (%)” value is reported as 21% and the “Modification of substrate specificity of GDH” value was “modified the substrate specificity”.
